Data reported in ChEMBL document CHEMBL4613209, “Quinolone hybrids and their anti-cancer activities: An overview” (Eur J Med Chem, 2019).

Legend:
Assay type in all cases: functional, cell-based
[1] = test system: SMMC-7721; test: Cytotoxicity against human SMMC7721 cells assessed as reduction in cell viability by MTT assay
[2] = test system: HL-60; test: Cytotoxicity against human HL60 cells assessed as reduction in cell viability by MTT assay
[3] = test system: CAPAN-1; test: Cytotoxicity against human Capan1 cells assessed as reduction in cell viability by MTT assay
[4] = test system: L1210; test: Cytotoxicity against mouse L1210 cells assessed as reduction in cell viability by MTT assay
[5] = test system: Hep 3B2; test: Cytotoxicity against human Hep3B cells assessed as reduction in cell viability by MTT assay

Measured: IC50

CCn1cc(-c2nc3scc(-c4ccc(F)cc4)n3n2)c(=O)c2cc(F)c(N3CCN(C)CC3)cc21
3.6 to 56.8 µM: [1] | [2] | [3] | [4] | [5]

COc1ccc(-c2csc3nc(-c4cn(C5CC5)c5cc(N6CCN(C)CC6)c(F)cc5c4=O)nn23)cc1
3.6 to 56.8 µM: [1] | [2] | [3] | [4] | [5]

CC1COc2c(N3CCN(C)CC3)c(F)cc3c(=O)c(-c4nc5scc(-c6ccccc6O)n5n4)cn1c23 (stereo not given)
3.6 to 56.8 µM: [1] | [2] | [3] | [4] | [5]

CCn1cc(-c2nc(SCc3nnc(-c4ccc(F)cc4)o3)n(CN(C)C)n2)c(=O)c2cc(F)c(N3CCN(C)CC3)cc21
1.5 to 5.2 µM: [1] | [2] | [3] | [4] | [5]

COc1cc(-c2csc3nc(-c4cn5c6c(c(N7CCN(C)CC7)c(F)cc6c4=O)OCC5C)nn23)ccc1O (stereo not given)
3.6 to 56.8 µM: [1] | [2] | [3] | [4] | [5]

CCn1cc(-c2nnc(SCc3nnc(-c4cccc(C)c4)o3)[nH]2)c(=O)c2cc(F)c(N3CCN(C)CC3)cc21
3.8 to 35.2 µM: [1] | [2] | [3] | [4] | [5]

CN1CCN(c2cc3c(cc2F)c(=O)c(-c2nc4scc(-c5ccc(Cl)cc5)n4n2)cn3C2CC2)CC1
3.6 to 56.8 µM: [1] | [2] | [3] | [4] | [5]

CCn1cc(-c2nc3scc(-c4ccc(OC)cc4)n3n2)c(=O)c2cc(F)c(N3CCN(C)CC3)cc21
3.6 to 56.8 µM: [1] | [2] | [3] | [4] | [5]

CCn1cc(-c2nc(SCc3nnc(-c4ccccc4)o3)n(CN(C)C)n2)c(=O)c2cc(F)c(N3CCN(C)CC3)cc21
1.5 to 24.5 µM: [1] | [2] | [3] | [4] | [5]

CCn1cc(-c2nnc(SCc3nnc(-c4ccccc4)o3)[nH]2)c(=O)c2cc(F)c(N3CCN(C)CC3)cc21
3.8 to 35.2 µM: [1] | [2] | [3] | [4] | [5]

CCn1cc(-c2nc(SCc3nnc(-c4ccc([N+](=O)[O-])cc4)o3)n(CN(C)C)n2)c(=O)c2cc(F)c(N3CCN(C)CC3)cc21
1.5 to 24.5 µM: [1] | [2] | [3] | [4] | [5]

CCn1cc(-c2nnc(SCc3nnc(-c4ccc(Cl)cc4)o3)[nH]2)c(=O)c2cc(F)c(N3CCN(C)CC3)cc21
3.8 to 35.2 µM: [1] | [2] | [3] | [4] | [5]

CCn1cc(-c2nc(SCc3nnc(-c4ccc(C)cc4)o3)n(CN(C)C)n2)c(=O)c2cc(F)c(N3CCN(C)CC3)cc21
1.5 to 24.5 µM: [1] | [2] | [3] | [4] | [5]

CC1COc2c(N3CCN(C)CC3)c(F)cc3c(=O)c(-c4nc5scc(-c6ccccc6)n5n4)cn1c23 (stereo not given)
3.6 to 56.8 µM: [1] | [2] | [3] | [4] | [5]

CC1COc2c(N3CCN(C)CC3)c(F)cc3c(=O)c(-c4nc5scc(-c6ccc(F)cc6)n5n4)cn1c23 (stereo not given)
3.6 to 56.8 µM: [1] | [2] | [3] | [4] | [5]

CN1CCN(c2cc3c(cc2F)c(=O)c(-c2nc4scc(-c5ccc(F)cc5)n4n2)cn3C2CC2)CC1
3.6 to 56.8 µM: [1] | [2] | [3] | [4] | [5]

CCn1cc(-c2nc(SCc3nnc(-c4cccc(C)c4)o3)n(CN(C)C)n2)c(=O)c2cc(F)c(N3CCN(C)CC3)cc21
1.5 to 24.5 µM: [1] | [2] | [3] | [4] | [5]
